Assays:
morningglory = assay: Test A morningglory; assay type: in vivo, Ipomoea spp.; conditions: 0 to 10 scale where 0 is no effect and 10 is complete control
Summary of the method: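 Injury scored visually after about eleven greenhouse days against untreated plants, 0 = no effect, 10 = complete control. Compounds, formulated in surfactant-containing non-phytotoxic solvent, were applied as preemergence soil drench to sandy loam plantings and as postemergence runoff spray at the 1–2 leaf stage.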

purple nutsedge [1] = assay: Test C postemergence purple nutsedge; assay type: in vivo, Cyperus rotundus; conditions: 0 to 100 scale, 0 no effect, 100 complete control
Protocol: (§1) Compounds evaluated in this test were formulated in a non-phytotoxic solvent mixture which included a surfactant and applied to plants that were grown for various periods of time before treatment (postemergence application). A mixture of sandy loam soil and greenhouse potting mix in a 60:40 ratio was used for the postemergence test.
(§2) Plantings of these crops and weed species were adjusted to produce plants of appropriate size for the postemergence test. All plant species were grown using normal greenhouse practices. Crop and weed species include arrowleaf sida (Sida rhombifolia), barnyardgrass (Echinochloa crus-galli), cocklebur (Xanthium strumarium), common ragweed (Ambrosia elatior), corn (Zea mays), cotton (Gossypium hirsutum), eastern black nightshade (Solanum ptycanthum), fall panicum (Panicum dichotomiflorum), field bindweed (Convolvulus arvensis), giant foxtail (Setaria faberii), hairy beggarticks (Bidens pilosa), ivyleaf morningglory (Ipomoea hederacea), johnsongrass (Sorghum halepense), ladysthumb smartweed (Polygonum persicaria), lambsquarters (Chenopodium album), large crabgrass (Digitaria sanguinalis), purple nutsedge (Cyperus rotundus), redroot pigweed (Amaranthus retroflexus), soybean (Glycine max), surinam grass (Brachiaria decumbens), velvetleaf (Abutilon theophrasti) and wild poinsettia (Euphorbia heterophylla).
(§3) Treated plants and untreated controls were maintained in a greenhouse for approximately 14, to 21 days, after which all treated plants were compared to untreated controls and visually evaluated. Plant response ratings, summarized in Table C, were based upon a 0 to 100 scale where 0 was no effect and 100 was complete control. A dash response (−) means no test result.

cocklebur = assay: Test C postemergence cocklebur; assay type: in vivo, Xanthium strumarium; conditions: 0 to 100 scale, 0 no effect, 100 complete control
Summary of the method: (§4)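 Compounds in a non-phytotoxic solvent mixture with surfactant were sprayed postemergence on greenhouse-grown plants sized for treatment, in 60:40 sandy loam soil:potting mix. After about 14 to 21 days, injury was rated visually against untreated controls on a 0–100 scale (0 no effect, 100 complete control).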

giant foxtail = assay: Test C postemergence giant foxtail; assay type: in vivo, Setaria faberii; conditions: 0 to 100 scale, 0 no effect, 100 complete control
Summary of the method: as §4

wild poinsettia = assay: Test C postemergence wild poinsettia; assay type: in vivo, Euphorbia heterophylla; conditions: 0 to 100 scale, 0 no effect, 100 complete control
Protocol: as §1, §2, §3

common ragweed [2] = assay: Test C postemergence common ragweed; assay type: in vivo, Ambrosia elatior; conditions: 0 to 100 scale, 0 no effect, 100 complete control
Protocol: as §1, §2, §3

large crabgrass [3] = assay: Test C postemergence large crabgrass; assay type: in vivo, Digitaria sanguinalis; conditions: 0 to 100 scale, 0 no effect, 100 complete control
Protocol: as §1, §2, §3

johnsongrass = assay: Test C postemergence johnsongrass; assay type: in vivo, Sorghum halepense; conditions: 0 to 100 scale, 0 no effect, 100 complete control
Summary of the method: as §4

hairy beggarticks = assay: Test C postemergence hairy beggarticks; assay type: in vivo, Bidens pilosa; conditions: 0 to 100 scale, 0 no effect, 100 complete control
Protocol: as §1, §2, §3

common ragweed [4] = assay: Test D common ragweed; assay type: in vivo, Ambrosia elatior; conditions: Rate 64 g/ha, Postemergence; 0 to 100 scale, 0 no injury, 100 complete control
large crabgrass [5] = assay: Test D large crabgrass; assay type: in vivo, Digitaria sanguinalis; conditions: Rate 64 g/ha, Postemergence; 0 to 100 scale, 0 no injury, 100 complete control
Alexandergrass = assay: Test D Alexandergrass; assay type: in vivo, Brachiaria plantaginea; conditions: Rate 64 g/ha, Postemergence; 0 to 100 scale, 0 no injury, 100 complete control
common groundsel = assay: Test D common groundsel; assay type: in vivo, Senecio vulgaris; conditions: Rate 64 g/ha, Postemergence; 0 to 100 scale, 0 no injury, 100 complete control
itchgrass = assay: Test D itchgrass; assay type: in vivo, Rottboellia exaltata; conditions: Rate 64 g/ha, Postemergence; 0 to 100 scale, 0 no injury, 100 complete control
pitted morningglory = assay: Test D pitted morningglory; assay type: in vivo, Ipomoea lacunosa; conditions: Rate 64 g/ha, Postemergence; 0 to 100 scale, 0 no injury, 100 complete control
Johnson grass = assay: Test D Johnson grass; assay type: in vivo, Sorghum halepense; conditions: Rate 64 g/ha, Postemergence; 0 to 100 scale, 0 no injury, 100 complete control
bermuda-grass = assay: Test D bermudagrass; assay type: in vivo, Cynodon dactylon; conditions: Rate 64 g/ha, Postemergence; 0 to 100 scale, 0 no injury, 100 complete control
purple nutsedge [6] = assay: Test D purple nutsedge; assay type: in vivo, Cyperus rotundus; conditions: Rate 64 g/ha, Postemergence; 0 to 100 scale, 0 no injury, 100 complete control
surinam grass = assay: Test D surinam grass; assay type: in vivo, Brachiaria decumbens; conditions: Rate 64 g/ha, Postemergence; 0 to 100 scale, 0 no injury, 100 complete control
Spanishneedles = assay: Test D Spanishneedles; assay type: in vivo, Bidens bipinnata; conditions: Rate 64 g/ha, Postemergence; 0 to 100 scale, 0 no injury, 100 complete control

Structure (SMILES)	Plant response rating, Morningglory (morningglory; Postemergence, Rate 1000 g/ha)	Plant response rating, Morningglory (morningglory; Pre-emergence, Rate 2000 g/ha)	Plant response rating, Purple nutsedge (purple nutsedge [1]; Rate 140 g/ha)	Plant response rating, Purple nutsedge (purple nutsedge [1]; Rate 280 g/ha)	Plant response rating, Purple nutsedge (purple nutsedge [1]; Rate 560 g/ha)	Plant response rating, Purple nutsedge (purple nutsedge [1]; Rate 1120 g/ha)	Plant response rating, Cocklebur (cocklebur; Rate 140 g/ha)	Plant response rating, Cocklebur (cocklebur; Rate 280 g/ha)	Plant response rating, Cocklebur (cocklebur; Rate 560 g/ha)	Plant response rating, Giant foxtail (giant foxtail; Rate 140 g/ha)	Plant response rating, Giant foxtail (giant foxtail; Rate 280 g/ha)	Plant response rating, Giant foxtail (giant foxtail; Rate 560 g/ha)	Plant response rating, Giant foxtail (giant foxtail; Rate 1120 g/ha)	Plant response rating Wild poinsettia (wild poinsettia; Rate 140 g/ha)	Plant response rating Wild poinsettia (wild poinsettia; Rate 280 g/ha)	Plant response rating Wild poinsettia (wild poinsettia; Rate 560 g/ha)	Plant response rating Wild poinsettia (wild poinsettia; Rate 1120 g/ha)	Plant response rating Common ragweed (common ragweed [2]; Rate 140 g/ha)	Plant response rating Common ragweed (common ragweed [2]; Rate 280 g/ha)	Plant response rating Common ragweed (common ragweed [2]; Rate 560 g/ha)	further results
CCN(CC)C(=O)n1oc(=O)n(-c2ccc(OC)cc2)c1=O [Compound 1]	0	0	–	–	–	–	–	–	–	–	–	–	–	–	–	–	–	–	–	–	–
Cc1ccccc1-n1c(=O)on(C(=O)N(C2=CCOCC2)C(C)C)c1=O [Compound 10]	0	1	–	–	–	–	–	–	–	–	–	–	–	–	–	–	–	–	–	–	–
CC(C)Oc1cc(-n2c(=O)on(C(=O)N(c3ccc(F)cc3)C(C)C)c2=O)c(Cl)cc1Cl [Compound 43]	0	0	–	–	–	–	–	–	–	–	–	–	–	–	–	–	–	–	–	–	–
CC(C)N(C(=O)n1oc(=O)n(Cc2cccs2)c1=O)c1ccc(F)cc1 [Compound 80]	–	–	0	0	0	0	5	10	50	0	0	0	20	0	0	5	5	0	0	5	Plant response rating, Cocklebur (cocklebur; Rate 1120 g/ha): 50; Plant response rating Common ragweed (common ragweed [2]; Rate 1120 g/ha): 5; Plant response rating, Large crabgrass (large crabgrass [3]; Rate 140 g/ha): 0; Plant response rating, Large crabgrass (large crabgrass [3]; Rate 280 g/ha): 0; Plant response rating, Large crabgrass (large crabgrass [3]; Rate 560 g/ha): 10; Plant response rating, Large crabgrass (large crabgrass [3]; Rate 1120 g/ha): 10; Plant response rating, Johnsongrass (johnsongrass; Rate 140 g/ha): 0; Plant response rating, Johnsongrass (johnsongrass; Rate 280 g/ha): 0; Plant response rating, Johnsongrass (johnsongrass; Rate 560 g/ha): 0; Plant response rating, Johnsongrass (johnsongrass; Rate 1120 g/ha): 0; Plant response rating H. beggarticks (hairy beggarticks; Rate 140 g/ha): 0; Plant response rating H. beggarticks (hairy beggarticks; Rate 560 g/ha): 10; Plant response rating H. beggarticks (hairy beggarticks; Rate 1120 g/ha): 10
C=CCn1c(=O)on(C(=O)N(c2ccccc2)C(C)C)c1=O [Compound 93]	–	–	0	0	0	10	0	35	40	10	55	80	95	0	0	30	70	5	10	10	Plant response rating Common ragweed (common ragweed [2]; Rate 1120 g/ha): 20; Plant response rating, Large crabgrass (large crabgrass [3]; Rate 140 g/ha): 0; Plant response rating, Large crabgrass (large crabgrass [3]; Rate 280 g/ha): 30; Plant response rating, Large crabgrass (large crabgrass [3]; Rate 560 g/ha): 50; Plant response rating, Large crabgrass (large crabgrass [3]; Rate 1120 g/ha): 95; Plant response rating, Johnsongrass (johnsongrass; Rate 140 g/ha): 0; Plant response rating, Johnsongrass (johnsongrass; Rate 280 g/ha): 5; Plant response rating, Johnsongrass (johnsongrass; Rate 560 g/ha): 85; Plant response rating, Johnsongrass (johnsongrass; Rate 1120 g/ha): 90; Plant response rating H. beggarticks (hairy beggarticks; Rate 280 g/ha): 0; Plant response rating H. beggarticks (hairy beggarticks; Rate 560 g/ha): 5; Plant response rating H. beggarticks (hairy beggarticks; Rate 1120 g/ha): 70
CC(C)N(C(=O)n1oc(=O)n(C2CCCCC2C(F)(F)F)c1=O)c1ccc(F)cc1 (stereo not shown) [Compound 99]	2	2	–	–	–	–	–	–	–	–	–	–	–	–	–	–	–	–	–	–	–
CC(C)N(C(=O)n1oc(=O)n(Cc2cccs2)c1=O)c1ccccc1 [Compound 103]	–	–	0	0	0	0	0	0	0	0	0	0	40	0	0	10	60	0	0	0	Plant response rating, Cocklebur (cocklebur; Rate 1120 g/ha): 0; Plant response rating Common ragweed (common ragweed [2]; Rate 1120 g/ha): 5; Plant response rating, Large crabgrass (large crabgrass [3]; Rate 140 g/ha): 0; Plant response rating, Large crabgrass (large crabgrass [3]; Rate 280 g/ha): 0; Plant response rating, Large crabgrass (large crabgrass [3]; Rate 560 g/ha): 0; Plant response rating, Large crabgrass (large crabgrass [3]; Rate 1120 g/ha): 10; Plant response rating, Johnsongrass (johnsongrass; Rate 140 g/ha): 0; Plant response rating, Johnsongrass (johnsongrass; Rate 280 g/ha): 0; Plant response rating, Johnsongrass (johnsongrass; Rate 560 g/ha): 0; Plant response rating, Johnsongrass (johnsongrass; Rate 1120 g/ha): 0; Plant response rating H. beggarticks (hairy beggarticks; Rate 140 g/ha): 0; Plant response rating H. beggarticks (hairy beggarticks; Rate 280 g/ha): 0; Plant response rating H. beggarticks (hairy beggarticks; Rate 560 g/ha): 0; Plant response rating H. beggarticks (hairy beggarticks; Rate 1120 g/ha): 5
CC(C)Cn1c(=O)on(C(=O)N(c2ccc(F)cc2)C(C)C)c1=O [Compound 169]	–	–	–	–	–	–	–	–	–	–	–	–	–	–	–	–	–	–	–	–	Plant response rating, C. ragweed (common ragweed [4]): 0; Plant response rating, Large crabgrass (large crabgrass [5]): 100; Plant response rating, Alexandergrass (Alexandergrass): 65; Plant response rating, Com. groundsel (common groundsel): 65; Plant response rating, Itchgrass (itchgrass): 0; Plant response rating, P. morninglory (pitted morningglory): 0; Plant response rating, Johnsongrass (Johnson grass): 0; Plant response rating, Bermudagrass (bermuda-grass): 100; Purple nutsedge plant response rating (purple nutsedge [6]): 0; Surinam grass plant response rating (surinam grass): 65; Spanishneedles plant response rating (Spanishneedles): 0

From US6737383B1, “Herbicidal oxadiazolidines” (priority 1999, dated 2004)
